This is an account of results in patent US20090299044A1 (priority 2006, published 2009).

“Also recorded” adds a separate entry of the source. Bridge positions count the residues as written; N and C are the ends. Ends that are not written are not given here. Peptide text beside a SMILES is read from it.

Assay [1] relates to IL-2 production, human whole blood. It counts as cell-based.
The target in another assay is human Kv1.1 (Homo sapiens, UniProt Q09470). The assay is described as follows: cell-based. On the set-up: expressed in transfected cells; host or cells: HEK293.
The target in a further assay is T1, human Kv1.1 (HEK293) (Homo sapiens, UniProt Q09470).
T1 construct: expressed in transfected cells; host or cells: HEK293
Kind of assay: cell-based.

Assay [2] deals with T2, human Kv1.3 channel (Homo sapiens, UniProt P22001). Kind of assay: cell-based. It counts as cell-based.
The target of another assay is T3, human Kv1.3 (CHO) (Homo sapiens, UniProt P22001).
T3 construct: expressed in transfected cells; host or cells: CHO
Kind of assay: cell-based.

Assay [3] has as its target T2, human Kv1.3 channel. The assay is described as follows: cell-based or functional assay.
In assay [4] the target is human Kv1.3 voltage-gated potassium channel (human) (UniProt P22001). Kind of assay: cell-based or functional assay.
human Kv1.3 voltage-gated potassium channel (human), sequence (P22001 whole entry): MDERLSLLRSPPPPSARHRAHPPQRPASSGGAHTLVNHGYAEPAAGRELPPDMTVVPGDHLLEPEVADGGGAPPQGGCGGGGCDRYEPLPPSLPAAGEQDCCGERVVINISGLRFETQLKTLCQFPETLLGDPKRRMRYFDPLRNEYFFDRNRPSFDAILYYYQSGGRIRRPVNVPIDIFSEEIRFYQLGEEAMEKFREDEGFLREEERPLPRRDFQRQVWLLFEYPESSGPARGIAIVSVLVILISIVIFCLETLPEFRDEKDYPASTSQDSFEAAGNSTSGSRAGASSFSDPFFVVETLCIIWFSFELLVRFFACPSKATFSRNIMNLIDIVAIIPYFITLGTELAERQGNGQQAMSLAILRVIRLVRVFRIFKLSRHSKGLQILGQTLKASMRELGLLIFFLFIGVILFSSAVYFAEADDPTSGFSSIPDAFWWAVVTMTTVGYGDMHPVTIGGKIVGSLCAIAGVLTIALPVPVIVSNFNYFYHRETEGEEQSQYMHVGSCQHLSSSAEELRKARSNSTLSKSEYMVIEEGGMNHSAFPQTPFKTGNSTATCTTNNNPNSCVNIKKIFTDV

human Kv1.1, sequence (Q09470 whole entry): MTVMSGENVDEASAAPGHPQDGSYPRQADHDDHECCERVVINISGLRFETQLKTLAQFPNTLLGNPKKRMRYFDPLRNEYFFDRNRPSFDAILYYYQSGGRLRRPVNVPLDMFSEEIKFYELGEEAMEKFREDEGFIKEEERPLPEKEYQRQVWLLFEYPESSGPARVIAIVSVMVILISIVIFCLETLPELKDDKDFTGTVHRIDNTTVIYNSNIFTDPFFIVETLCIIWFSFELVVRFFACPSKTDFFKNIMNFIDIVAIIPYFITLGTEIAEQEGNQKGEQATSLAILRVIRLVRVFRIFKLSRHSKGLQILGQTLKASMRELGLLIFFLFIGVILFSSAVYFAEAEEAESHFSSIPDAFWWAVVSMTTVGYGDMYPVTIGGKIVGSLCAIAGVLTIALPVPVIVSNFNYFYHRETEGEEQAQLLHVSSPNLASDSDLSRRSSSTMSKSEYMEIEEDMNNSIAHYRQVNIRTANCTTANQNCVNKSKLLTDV
T1 sequence (Q09470 whole entry): as above
T3 sequence (P22001 whole entry): as the sequence (P22001 whole entry) above
T2 sequence (P22001 whole entry): as above

With `CC[C@H](C)[C@@H]1NC(=O)[C@H](CCCCN)NC(=O)[C@@H](NC(=O)[C@H](CCCCN)NC(=O)[C@@H](NC(=O)[C@H](CC(N)=O)NC(=O)[C@@H](NC(=O)[C@@H](NC(=O)[C@@H](NC(=O)CN)C(C)C)[C@@H](C)CC)[C@@H](C)CC)C(C)C)CSSC[C@@H]2NC(=O)[C@H](CCCCN)NC(=O)CNC(=O)[C@H](Cc3ccccc3)NC(=O)[C@H](CCCNC(=N)N)NC(=O)[C@H](CCSC)NC(=O)CNC(=O)[C@H](C)NC(=O)[C@H](CCCCN)NC(=O)[C@H](CCCCN)NC(=O)[C@@H]3CSSC[C@@H](C(=O)N[C@H](C(=O)N4CCC[C@H]4C(=O)N[C@@H](CCCCN)C(=O)O)[C@@H](C)O)NC(=O)[C@H](Cc4c[nH]cn4)NC(=O)[C@H](CSSC[C@H](NC(=O)[C@H](CCC(N)=O)NC(=O)[C@H](CCCNC(=N)N)NC(=O)[C@H](CO)NC1=O)C(=O)N[C@@H](CC(C)C)C(=O)N[C@@H](CCC(=O)O)C(=O)N1CCC[C@H]1C(=O)N3)NC(=O)[C@H](CCCCN)NC(=O)CNC(=O)[C@H](CC(N)=O)NC(=O)[C@H](C)NC2=O` [OSK1[Ala-29]] (H-GVIINVKCKISRQCLEPCKKAGMRFGKCANGKCHCTPK-OH; disulfide 8-28, 14-33, 18-35), the “potency relative to cyclosporin A in blocking the cytokine response in human whole blood (in words)” value in assay [1] was “several orders of magnitude more potent”. On human Kv1.1 (IC50 on HEK/Kv1.1), this molecule came in with an IC50 of 2700 pM.

Regarding `CC[C@H](C)[C@@H]1NC(=O)[C@H](CCCCN)NC(=O)[C@@H](NC(=O)[C@H](CCCCN)NC(=O)[C@@H](NC(=O)[C@H](CC(N)=O)NC(=O)[C@@H](NC(=O)[C@@H](NC(=O)[C@@H](NC(=O)CN)C(C)C)[C@@H](C)CC)[C@@H](C)CC)C(C)C)CSSC[C@@H]2NC(=O)[C@H](CCCCN)NC(=O)CNC(=O)[C@H](Cc3ccccc3)NC(=O)[C@H](CCCNC(=N)N)NC(=O)[C@H](CCSC)NC(=O)CNC(=O)[C@H](C)NC(=O)[C@H](CCCCN)NC(=O)[C@H](CCCCN)NC(=O)[C@@H]3CSSC[C@@H](C(=O)N[C@H](C(=O)N4CCC[C@H]4C(=O)N[C@@H](CCCCN)C(=O)O)[C@@H](C)O)NC(=O)[C@H](Cc4c[nH]cn4)NC(=O)[C@H](CSSC[C@H](NC(=O)[C@H](CCC(N)=O)NC(=O)[C@H](C)NC(=O)[C@H](CO)NC1=O)C(=O)N[C@@H](CC(C)C)C(=O)N[C@@H](CCC(=O)O)C(=O)N1CCC[C@H]1C(=O)N3)NC(=O)[C@H](CCCCN)NC(=O)CNC(=O)[C@H](CC(N)=O)NC(=O)[C@H](CCSC)NC2=O` [R12A] (H-GVIINVKCKISAQCLEPCKKAGMRFGKCMNGKCHCTPK-OH; disulfide 8-28, 14-33, 18-35), the IC50 on human Kv1.1 (HEK293) amounted to 0.0559 nM; at human Kv1.1 (Kv1.1 (IC50, pM)), 440 pM; on human Kv1.3 channel [2] it was 0.025 nM; on human Kv1.3 (CHO), 0.39 nM.

On to `CC[C@H](C)[C@@H]1NC(=O)[C@H](CCCCN)NC(=O)[C@@H](NC(=O)[C@H](CCCCN)NC(=O)[C@@H](NC(=O)[C@H](CC(N)=O)NC(=O)[C@@H](NC(=O)[C@@H](NC(=O)[C@@H](NC(=O)CN)C(C)C)[C@@H](C)CC)[C@@H](C)CC)C(C)C)CSSC[C@@H]2NC(=O)[C@H](CCCCN)NC(=O)CNC(=O)[C@H](Cc3ccccc3)NC(=O)[C@H](CCCNC(=N)N)NC(=O)[C@H](CCSC)NC(=O)CNC(=O)[C@H](C)NC(=O)[C@H](CCCCN)NC(=O)[C@H](CCCCN)NC(=O)[C@@H]3CSSC[C@@H](C(=O)N[C@H](C(=O)N4CCC[C@H]4C(=O)N[C@@H](CCCCN)C(=O)O)[C@@H](C)O)NC(=O)[C@H](Cc4c[nH]cn4)NC(=O)[C@H](CSSC[C@H](NC(=O)[C@H](CCC(N)=O)NC(=O)[C@H](CCCNC(=N)N)NC(=O)[C@H](CCCNC(=N)N)NC1=O)C(=O)N[C@@H](CC(C)C)C(=O)N[C@@H](CCC(=O)O)C(=O)N1CCC[C@H]1C(=O)N3)NC(=O)[C@H](CCCCN)NC(=O)CNC(=O)[C@H](CC(N)=O)NC(=O)[C@H](CCSC)NC2=O` [S11R] (H-GVIINVKCKIRRQCLEPCKKAGMRFGKCMNGKCHCTPK-OH; disulfide 8-28, 14-33, 18-35), for which the IC50 came to 0.21 nM against human Kv1.1 (HEK293); 9130 pM against human Kv1.1 (Kv1.1 (IC50, pM)); 0.04 nM on human Kv1.3 channel [2]; 0.0167 nM on human Kv1.3 (CHO).

Take `CC[C@H](C)[C@@H]1NC(=O)[C@H](CCCCN)NC(=O)[C@@H](NC(=O)[C@H](CCCCN)NC(=O)[C@@H](NC(=O)[C@H](CC(N)=O)NC(=O)[C@@H](NC(=O)[C@@H](NC(=O)[C@@H](NC(=O)CN)C(C)C)[C@@H](C)CC)[C@@H](C)CC)C(C)C)CSSC[C@@H]2NC(=O)[C@H](CCCCN)NC(=O)CNC(=O)[C@H](Cc3ccccc3)NC(=O)[C@H](CCCNC(=N)N)NC(=O)[C@H](CCSC)NC(=O)CNC(=O)[C@H](C)NC(=O)[C@H](CCCCN)NC(=O)[C@H](CCCCN)NC(=O)[C@@H]3CSSC[C@@H](C(=O)N[C@@H](CCC(=O)O)C(=O)N4CCC[C@H]4C(=O)N[C@@H](CCCCN)C(=O)O)NC(=O)[C@H](Cc4c[nH]cn4)NC(=O)[C@H](CSSC[C@H](NC(=O)[C@H](CCC(N)=O)NC(=O)[C@H](CCCNC(=N)N)NC(=O)[C@H](CO)NC1=O)C(=O)N[C@@H](CC(C)C)C(=O)N[C@@H](CCC(=O)O)C(=O)N1CCC[C@H]1C(=O)N3)NC(=O)[C@H](CCCCN)NC(=O)CNC(=O)[C@H](CC(N)=O)NC(=O)[C@H](CCSC)NC2=O` [T36E] (H-GVIINVKCKISRQCLEPCKKAGMRFGKCMNGKCHCEPK-OH; disulfide 8-28, 14-33, 18-35): the IC50 against human Kv1.1 (HEK293) is more than 3.33 nM; on human Kv1.1 (Kv1.1 (IC50, pM)), 83900 pM; against human Kv1.3 channel [2] it was 1.92 nM; against human Kv1.3 (CHO), 0.161 nM.

In the case of E. coli-derived Fc-L-OSK1 (Fc fusion), the Kv1.3 IC50 by WCVC (whole cell patch clamp, HEK293/Kv1.3 cells) with human Kv1.3 channel [3] stood at 3.2 nM.

As for “E. coli-derived Fc-L-ShK[1-35] (Fc fusion)”, in the assay with human Kv1.3 channel [3], the Kv1.3 IC50 by WCVC (whole cell patch clamp, HEK293/Kv1.3 cells) was found to be 1.4 nM.

In the assay with human Kv1.3 channel [3], “E. coli-derived Fc-L-ShK[2-35] (Fc fusion)” displayed a Kv1.3 IC50 by IWQ (IonWorks planar patch clamp, CHO/Kv1.3 cells) of 2.8 nM and a Kv1.3 IC50 by WCVC (whole cell patch clamp, HEK293/Kv1.3 cells) of 1.3 nM.

For “E. coli-derived ShK[2-35]-L-Fc (Fc fusion)”, the Kv1.3 IC50 by IWQ (IonWorks planar patch clamp, CHO/Kv1.3 cells) with human Kv1.3 channel [3] worked out at 4.9 nM.

The molecule “E. coli-derived Shk[1-35]-L-Fc (Fc fusion)” showed a Kv1.3 IC50 by IWQ (IonWorks planar patch clamp, CHO/Kv1.3 cells) with human Kv1.3 channel [3] of 2.4 nM.

In the assay with human Kv1.3 channel [3], “Fc-L25-ShK[2-35] (CHO-derived) (Fc fusion)” gave an IC50 of current block, whole cell patch clamp on HEK293/Kv1.3 cells of 0.15 nM.

On to OSK1 analogue E16K, K20D (peptide), for which, in assay [4], the WB/IFNg (IC50, nM), human whole blood is 1.32 nM and the WB/IL-2 (IC50, nM), human whole blood was determined as 1.58 nM.

As to “SEQ ID No: 4989: OSK1 analog without beta strand 1 (des 1-7), Table 42 (CKISRQCLKPCKDAGMRFGKCMNGKCHC-NH2; ends and bridges not checked)”, the “blockade of the whole blood cytokine response (IL-2 and IFNg), in words” value (from here on “blockade”) in assay [1] is recorded as “retain activity in blocking inflammation”.

B1: PEGylated CH2-OSK1: CH2-OSK1 fusion protein mono-PEGylated with 20 kD methoxy-PEG-aldehyde (conjugate)
chain: MGGHHHHHHGGGPSVFLFPPKPKDTLMISRTPEVTCVVVDVSHEDPEVKFNWYVDGVEVHNAKTKPREEQYNSTYRVVSVLTVLHQDWLNGKEYKCKVSNKALPAPIEKTISGGGGSGGGGSGVIINVKCKISRQCLEPCKKAGMRFGKCMNGKCHCTPK
Take B1: in assay [1], the “blockade” value is reported as “active in blocking inflammation; also recorded: modest blockade”.

B2: FcLoop-L2-ShK-L2: ShK inserted into the human IgG1 Fc-loop with 2-Gly linkers (protein)
chain: MDKTHTCPPCPAPELLGGPSVFLFPPKPKDTLMISRTPEVTCVVVDVSHEDPEVKFNWYVDGVEVHNAKTKPREEQYNSTYRVVSVLTVLHQDWLNGKEYKCKVSNKALPAPIEKTISKAKGQPREPQVYTLPPSRDELGGRSCIDTIPKSRCTAFQCKHSMKYRLSFCRKTCGTCGGTKNQVSLTCLVKGFYPSDIAVEWESNGQPENNYKTTPPVLDSDGSFFLYSKLTVDKSRWQQGNVFSCSVMHEALHNHYTQKSLSLSPGK
modifications: Definition of Artificial Sequence: Synthetic protein
As for B2, in assay [1], the “blockade” value is “potent blockade”.

B3: FcLoop-L2-OsK1-L2: OsK1 inserted into the human IgG1 Fc-loop between Leu139 and Thr140 with 2-Gly linkers (protein)
chain: MDKTHTCPPCPAPELLGGPSVFLFPPKPKDTLMISRTPEVTCVVVDVSHEDPEVKFNWYVDGVEVHNAKTKPREEQYNSTYRVVSVLTVLHQDWLNGKEYKCKVSNKALPAPIEKTISKAKGQPREPQVYTLPPSRDELGGGVIINVKCKISRQCLEPCKKAGMRFGKCMNGKCHCTPKGGTKNQVSLTCLVKGFYPSDIAVEWESNGQPENNYKTTPPVLDSDGSFFLYSKLTVDKSRWQQGNVFSCSVMHEALHNHYTQKSLSLSPGK
modifications: Definition of Artificial Sequence: Synthetic protein
For the molecule B3, the “blockade” value in assay [1] is “potent blockade”.

Broadly, the IC50 is the concentration that gives 50% inhibition. Low values mean greater potency in that assay, high ones weaker potency in that assay.
